US20260028337A1, “COMPOUND FOR INHIBITING IRAK4 ACTIVITY AND USE THEREOF” (SHENZHEN ZHONGGE BIOLOGICAL TECHNOLOGY CO., LTD., priority 2022, published 2026)
Where a name gives a salt, the structure may show the parent alone.

The compounds below were run against IRAK4 kinase (Homo sapiens (Human), UniProt Q9NWZ3) (assay: IRAK4 Kinase Inhibition Assay (Cisbio HTRF KinEASE-STK S1 kit)). Settings: IRAK4 kinase protein 10 nM, ATP 200 μM, STK Substrate 1-biotin 1 μM, 37° C. 2 h, read-out: IC50 (nM), IRAK4 kinase inhibitory activity.
Chain of IRAK4 kinase (Q9NWZ3 whole entry): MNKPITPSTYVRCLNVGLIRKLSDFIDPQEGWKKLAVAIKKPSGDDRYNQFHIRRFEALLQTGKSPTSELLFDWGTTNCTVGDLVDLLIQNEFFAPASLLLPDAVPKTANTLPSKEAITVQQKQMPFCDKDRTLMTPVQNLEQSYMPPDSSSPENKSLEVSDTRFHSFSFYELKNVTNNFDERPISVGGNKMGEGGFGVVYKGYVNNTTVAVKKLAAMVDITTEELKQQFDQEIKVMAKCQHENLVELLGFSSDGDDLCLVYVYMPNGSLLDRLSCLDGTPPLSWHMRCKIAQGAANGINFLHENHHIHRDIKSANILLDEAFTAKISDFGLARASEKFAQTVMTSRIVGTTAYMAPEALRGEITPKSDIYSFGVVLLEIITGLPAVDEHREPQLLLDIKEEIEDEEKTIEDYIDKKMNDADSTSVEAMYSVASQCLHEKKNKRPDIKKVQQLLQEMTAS
Assay type: biochemical
Procedure: Test Example 1. IRAK4 Kinase Inhibition Assay
In this assay, Cisbio HTRF KinEASE-STK SI kit (62S 1 PEB) was used, in which assay/detection buffer, STK Substrate 1-biotin, Streptavidin-XL665, STK Antibody-Cryptate were contained.
After adding compound/DMSO to a 384-well plate (PerkinElmer 6008280) using Echo 665, 5 μL of 2-fold reaction concentration of IRAK4 kinase protein (final concentration: 10 nM) dissolved with assay buffer [1 volume of 5× kinase buffer+20 mM magnesium chloride (Sigma) solution+1 mM DTT (Alfa Aesar) solution+4 volumes deionized water] was added, followed by sealing the shallow well plate, shaking and then centrifuging at 1000 rpm for 1 min, and incubating at room temperature for 5 min; then 5 μL of 2-fold reaction concentration of a 1:1 mixture of STK Substrate 1-biotin (final concentration: 1 μM) and ATP (Sigma A1852) (final concentration: 200 μM) formulated with assay buffer was added, followed by sealing the shallow well plate, shaking and then centrifuging at 1000 rpm for 1 min, and incubating at 37° C. for 2 h, and then 10 μL of a 1:1 mixture of Streptavidin-XL665 (final concentration: 62.5 nM) and STK-antibody-cryptate dissolved with detection buffer was added, followed by sealing the shallow well plate, shaking and then centrifuging at 1000 rpm for 1 min, and incubating at room temperature for 1 h, and thereafter reading the value at the wavelength of 620 nm/665 nm using a microplate reader. The data were analyzed using Prism 9.3 software, and the IC50 value of IRAK4 kinase inhibition was fitted using a four parameter Logistic equation.
Compound O=S1(=O)CCN(c2ccn3ncc(-c4cn(-c5cn([C@H]6CC[C@H](CO)CC6)nc5C(F)F)nn4)c3n2)CC1 [Compound 91A, 4-(3-(1-(3-(difluoromethyl)-1-((1r,4r)-4-(methylol)cyclohexyl)-1H-pyrazol-4-yl)-1H-1,2,3-triazol-4-yl)pyrazolo[1,5-a]pyrimidin-5-yl)thiomorpholine 1,1-dioxide] has an IC50 of 100 to 1000 nM.
With CC(C)(O)CCNc1ccn2ncc(-c3cn(-c4cn([C@H]5CC[C@H](CO)CC5)nc4C(F)F)nn3)c2n1 [Compound 92A, 4-((3-(1-(3-(difluoromethyl)-1-((1r,4r)-4-(methylol)cyclohexyl)-1H-pyrazol-4-yl)-1H-1,2,3-triazol-4-yl]pyrazolo[1,5-a]pyrimidin-5-yl)amino)-2-methylbutan-2-ol] the IC50 was less than 100 nM.
In the case of CC1(O)CCN(c2ccn3ncc(-c4cn(-c5cn([C@H]6CC[C@H](CO)CC6)nc5C(F)F)nn4)c3n2)CC1 [Compound 93A, 1-(3-(1-(3-difluoromethyl)-1-((1r,4r)-4-(methylol)cyclohexyl)-1H-pyrazol-4-yl)-1H-1,2,3-triazol-4-ylpyrazolo[1,5-a]pyrimidin-5-yl)-4-methylpiperidin-4-ol], the IC50 is reported as less than 100 nM.
With OC[C@H]1CC[C@H](n2cc(-n3cc(-c4cnn5ccc(NCC6CC6)nc45)nn3)c(C(F)F)n2)CC1 [Compound 94A, ((1r,4r)-4-(4-(4-(5-((cyclopropylmethyl)amino)pyrazolo[1,5-a]pyrimidin-3-yl)-1H-1,2,3-triazol-1-yl)-3-(difluoromethyl)-1H-pyrazol-1-yl)cyclohexyl)methanol] the IC50 was less than 100 nM.
With CN1CCN(c2ccn3ncc(-c4cn(-c5cn([C@H]6CC[C@H](CO)CC6)nc5C(F)F)nn4)c3n2)CC1 [Compound 95A, (1R,4R)-4-(3-difluoromethyl)-4-(4-(5-(4-methylpiperazin-1-yl)pyrazolo[1,5-a]pyrimidin-3-yl)-1H-1,2,3-triazol-1-yl)-1H-pyrazol-1-yl)cyclohexylmethanol formate] the IC50 was 100 to 1000 nM.
OC[C@H]1CC[C@H](n2cc(-n3cc(-c4cnn5ccc(N6CC(O)C6)nc45)nn3)c(C(F)F)n2)CC1 [Compound 96A, 1-(3-(1-(3-difluoromethyl)-1-((1r,4r)-4-(methylol)cyclohexyl)-1H-pyrazol-4-yl)-1H-1,2,3-triazol-4-ylpyrazolo[1,5-a]pyrimidin-5-yl)azetidin-3-ol] gave an IC50 of 100 to 1000 nM.
OC[C@H]1CC[C@H](n2cc(-n3cc(-c4cnn5ccc(N6CCC(O)CC6)nc45)nn3)c(C(F)F)n2)CC1 [Compound 97A] showed an IC50 of less than 100 nM.
OC[C@H]1CC[C@H](n2cc(-n3cc(-c4cnn5ccc(N6CCCOCC6)nc45)nn3)c(C(F)F)n2)CC1 [Compound 98A] showed an IC50 of less than 100 nM.
OCC1CCC(n2cc(-n3cc(-c4cnn5ccc(N6CC7CC[C@H](C6)O7)nc45)nn3)c(C(F)F)n2)CC1 (stereo partly shown) [Compound 99A, ((1r,4r)-4-(4-(4-(5-(8-oxa-3-azabicyclo[3.2.1]oct-3-yl)pyrazolo[1,5-a]pyrimidin-3-yl)-1H-1,2,3-triazol-1-yl)-3-(difluoromethyl)-1H-pyrazol 1-yl)cyclohexyl)methanol] gave an IC50 of 100 to 1000 nM.
OC[C@H]1CC[C@H](n2cc(-n3cc(-c4cnn5ccc(N6CCCC(O)C6)nc45)nn3)c(C(F)F)n2)CC1 (stereo partly shown) [Compound 100A] was tested, and the IC50 was less than 100 nM.
OC[C@H]1CC[C@H](n2cc(-n3cc(-c4cnn5ccc(N6CCC(O)C6)nc45)nn3)c(C(F)F)n2)CC1 (stereo partly shown) [Compound 101A] was tested, and the IC50 was 100 to 1000 nM.
CN(C)C1CCN(c2ccn3ncc(-c4cn(-c5cn(C6CCC(CO)CC6)nc5C(F)F)nn4)c3n2)CC1 (stereo not shown) [Compound 102A, ((1r, 4r)-4-(3-(difluoromethyl)-4-(4-(5-(4-(dimethylamino)piperidin-1-yl)pyrazolo[1,5-a]pyrimidin-3-yl)-1H-1,2,3-triazol-1-yl)-1H-pyrazol-1-ylcyclohexyl)methanol] gave an IC50 of 100 to 1000 nM.
For N[C@H]1CCCN(c2ccn3ncc(-c4cn(-c5cn(C6CCC(CO)CC6)nc5C(F)F)nn4)c3n2)C1 (stereo partly drawn) [Compound 103A, ((1r, 4r)-4-(4-(4-(5-((S)-3-aminopiperidin-1-yl)pyrazolo[1,5-a]pyrimidin-3-yl)-1H-1,2,3-triazol-1-yl)-3-(difluoromethyl)-1H-pyrazol-1-yl]cyclohexyl) methanol], the IC50 was less than 100 nM.
In the case of OC[C@H]1CC[C@H](n2cc(-n3cc(-c4cnn5ccc(N6CCOCC6)nc45)nn3)c(C(F)F)n2)CC1 [Compound 104A, ((1r,4r)-4-(3-(difluoromethyl)-4-(4-(5-morpholinyl-pyrazolo[1,5-a]pyrimidin-3-yl)-1H-1,2,3-triazol-1-yl)-1H-pyrazol-1-yl]cyclohexyl)methanol], the IC50 is reported as less than 100 nM.
Compound OCC1CCC(n2cc(-n3cc(-c4cnn5ccc(N6C[C@H]7C[C@@H]6CO7)nc45)nn3)c(C(F)F)n2)CC1 (stereo partly drawn) [Compound 105A, ((1R,4r)-4-(4-(4-(5-((1R,4r)-2-oxa-5-azabicyclo[2.2.1]heptan-5-yl)pyrazolo[1,5-a]pyrimidin-3-yl)-1H-1,2,3-triazol-1-yl)-3-(difluoromethyl)-1H-pyrazol-1-yl)cyclohexyl)methanol] has an IC50 of 100 to 1000 nM.
N[C@@H]1CCCN(c2ccn3ncc(-c4cn(-c5cn(C6CCC(CO)CC6)nc5C(F)F)nn4)c3n2)C1 (stereo partly shown) [Compound 106A] gave an IC50 of less than 100 nM.
Work on OCC1CCC(n2cc(-n3cc(-c4cnn5ccc(N[C@H]6CCCC[C@H]6O)nc45)nn3)c(C(F)F)n2)CC1 (stereo partly drawn) [Compound 107A, (1R,2S)-2-((3-(1-(3-(difluoromethyl)-1-((1R,4S)-4-(methylol)cyclohexyl)-1H-pyrazol-4-yl)-1H-1,2,3-triazol-4-yl]pyrazolo[1,5-a]pyrimidin-5-yl)amino)cyclohexan-1-ol] yielded an IC50 of less than 100 nM.
Compound NC1CN(c2ccn3ncc(-c4cn(-c5cn([C@H]6CC[C@H](CO)CC6)nc5C(F)F)nn4)c3n2)CC(F)(F)C1 (stereo partly shown) [Compound 108A] has an IC50 of less than 100 nM.
C[C@H]1CN(c2ccn3ncc(-c4cn(-c5cn(C6CCC(CO)CC6)nc5C(F)F)nn4)c3n2)C[C@H](C)O1 (stereo partly shown) [Compound 109A] showed an IC50 of less than 100 nM.
OC[C@H]1CC[C@H](n2cc(-n3cc(-c4cnn5ccc(N[C@@H]6CCCC[C@@H]6O)nc45)nn3)c(C(F)F)n2)CC1 [Compound 111A, (1S,2R)-2-((3-(1-(3-(difluoromethyl)-1-((1r,4R)-4-(methylol)cyclohexyl)-1H-pyrazol-4-yl)-1H-1,2,3-triazol-4-yl]pyrazolo[1,5-a]pyrimidin-5-yl)amino)cyclohexan-1-ol] gave an IC50 of less than 100 nM.
Compound OCC1CCC(n2cc(-n3cc(-c4cnn5ccc(N6CCC[C@H](O)C6)nc45)nn3)c(C(F)F)n2)CC1 (stereo partly drawn) [Compound 112A, (S)-1-(3-(1-(3-(difluoromethyl)-1-((1r,4r)-4-(methylol)cyclohexyl)-1H-pyrazol-4-yl)-1H-1,2,3-triazol-4-yl]pyrazolo[1,5-a]pyrimidin-5-yl)piperidin-3-ol] has an IC50 of less than 100 nM.
OCC1CCC(n2cc(-n3cc(-c4cnn5ccc(N6CCC[C@@H](O)C6)nc45)nn3)c(C(F)F)n2)CC1 (stereo partly drawn) [Compound 113A, (R)-1-(3-(1-(3-(difluoromethyl)-1-((1r,4r)-4-(methylol)cyclohexyl)-1H-pyrazol-4-yl)-1H-1,2,3-triazol-4-yl]pyrazolo[1,5-a]pyrimidin-3-yl) piperidin-3-ol] was tested, and the IC50 was less than 100 nM.
